In patent US7485743B2, “Oligomeric ketone compounds” (BTG International Limited, priority 2004, dated 2009):

How the values were obtained:
[1] = Ketogenic effect after oral administration: β-hydroxybutyrate concentrations in rat plasma; format: in vivo, rat (male Sprague-Dawley); settings: 300 mg/kg po; for Maximum increase of plasma concentration of β-hydroxybutyrate: versus vehicle baseline
Method: Male Sprague-Dawley rats (weight range 200-250 g) were obtained from Charles River, Margate, Kent. The rats were group housed in polypropylene cages at a temperature of 21 ±4° C. and 55 ±20% humidity and on a standard light/dark cycle. Animals had free access to a standard pelleted rat diet and tap water at all times. Animals were accustomed to these conditions for at least one week before experimentation.
Animals were killed by CO2 and blood (approx, 5 ml) was collected by cardiac puncture at various times after dosing. Blood was collected into EDTA-coated plasma collection tubes (Sarstedt 5 ml K2E tubes) and kept on ice prior to centrifugation. Tubes were centrifuged in an Eppendorf 570R centrifuge at 4° C. for 5 minutes at 2500 rpm (1000 g). Following plasma separation, extreme care was taken to avoid contamination with red blood cells and samples were re-centrifuged as necessary. Plasma samples were initially frozen on dry ice and transferred to a −75° C. freezer until required for analysis.
Sodium DL-β-hydroxybutyrate (H-6501 Lot 111K2618) was obtained from Sigma. A stock solution of β-bydroxybutyrate (40 mM DL racemate equivalent to 20 mM D-isomer) was prepared in 0.9% saline solution, kept at 4° C. and used to generate appropriate dilutions for an assay standard curve.
Commercial clinical assay kits for the determination of D-β-hydroxybutyrate were obtained from Random Laboratories (Antrim, UK). Kits were obtained in two pack sizes (Ranbut RB1007: 10×10 ml and RB1008: 10×50 ml) but were otherwise identical. Each kit contained a standard solution of 1 mM D-β-hydroxybutyrate that was assayed every time to confirm the assay was performing correctly. The kit relies on measuring the appearance of NADH via the activity of β-hydroxybutyrate dehydrogenase measured as an increase of OD340 nm. An alkaline pH is necessary to drive the reaction equilibrium towards the production of NADH and acetoacetate.
The protocol supplied with the Ranbut kits was for a discrete (cuvette-based) spectrophotometric assay, so the protocol was modified for suitability with a 96-well microplate format using blank, flat-bottomed microplates (Greiner PS 655101 Lot 98 35 01). Assays were performed in triplicate using a sample volume of10 μl to each well for the standards and usually 20 μl for plasma samples (though this was varied for some experiments). Standard dilutions and samples were pipetted a single plate at a time and preincubated at 37° C. for 15 minutes in the sample compartment of a Molecular Devices VERSAMAX tunable microplate reader. The appropriate volume of assey reagent was reconstituted, according to instructions, using distilled water and preincubated at 37° C. for 15 minutes using a static water bath. The assay plate was ejected and the reaction started by adding rapidly 250 μl of reagent to each well (avoiding air bubbles). The plate was reloaded, mixed and then the change in OD340 nm followed in kinetic mode with a reading at every 15 seconds for a total of 2 minutes. The reaction rate was then determined from the OD increase over a suitable 1 minute period, after allowing a necessary period for the reaction rate to settle. The rate between 45 seconds and 105 seconds was used as the default measuring period, though occasionally a different period was used as necessary (e.g. if an aberrant reading was obtained at one of these time-points).
For analysis of spectrophotometric rate assays, linear regression analysis to the standard curve was used followed by interpolation of unknown values (GraphPad Prism 3.0) For comparison of treatment groups with vehicle, multiple 2-tailed T-tests were used and p<0.05 was taken to indicate statistical significance.

[2] = Method: Control animals received the appropriate vehicle (deionized water at 1 ml/kg) via the same route.

SMILES	Time at which the maximum increase of plasma β-hydroxybutyrate was observed [1] [min]	Time by which plasma β-hydroxybutyrate returned to control values [1] [h]	Time until which plasma β-hydroxybutyrate plateaued at the maximum level [1] [min]	Level of plasma β-hydroxybutyrate at 1 h ([1]; 1 h after dosing)	Maximum increase of plasma concentration of β-hydroxybutyrate [1] [mM]	Solubility in deionized water and nature of the solution ([2]; deionized water, dosing solution for gavage)	Solubility in water ([2]; isolated product (syrup))
C[C@@H](O)CC(=O)[O-].[Na+] [KTX 0101, sodium (R)-3-hydroxybutyrate]	15	≤ 2	30	still significantly (P<0.05) elevated	0.4	–	–
CC(=O)CCOC(=O)C[C@@H](C)OC(=O)C[C@@H](C)OC(=O)C[C@@H](C)O [KTX 0204, 2-keto-butan-4-ol ester of (R)-3-hydroxybutyrate triolide]	30	≤ 1	–	–	0.25	mostly soluble in deionized water and produced a cloudy and stable solution	water-soluble
